What was measured:
Format in all cases: toxicity, cell-based
[1] = system: Fibroblast; assay: Incucyte cell viability with human fibroblast; details: 10 µM, compound concentration 10 uM
[2] = system: HEK-293T; assay: Incucyte cell viability with HEK293T; details: human, 10 µM, compound concentration 10 uM
[3] = system: U2OS; assay: Incucyte cell viability with U2OS; details: human, 10 µM, compound concentration 10 uM
[4] = 0 h, replicate number 1, timepoint 0 hours
[5] = 0 h, replicate number 2, timepoint 0 hours
[6] = 6 h, replicate number 1, timepoint 6 hours
[7] = 6 h, replicate number 2, timepoint 6 hours
[8] = 12 h, replicate number 1, timepoint 12 hours
[9] = 12 h, replicate number 2, timepoint 12 hours
[10] = 18 h, replicate number 1, timepoint 18 hours
[11] = 18 h, replicate number 2, timepoint 18 hours
[12] = 24 h, replicate number 1, timepoint 24 hours
[13] = 24 h, replicate number 2, timepoint 24 hours
Also: unitless GR value; below 1 slowed growth and below 0 cell loss.

With `CC(C)(O)C(=O)N1CCN(c2ccc(C(F)(F)F)c(C3=C(c4c[nH]c5ccccc45)C(=O)NC3=O)c2)CC1` the “Growth Rate” value [1, 4] was -0.17, the “Growth Rate” value [1, 5] was -0.42 and the “Growth Rate” value [1, 6] was -0.69. The “Growth Rate” value [1, 7] was 0.17, the “Growth Rate” value [1, 8] was -0.33 and the “Growth Rate” value [1, 9] was 0.04. For the same compound, the “Growth Rate” value [1, 10] was -0.31, the “Growth Rate” value [1, 11] was -0.06 and the “Growth Rate” value [1, 12] was -0.3. For the same compound, the “Growth Rate” value [1, 13] was -0.09, the “Growth Rate” value [2, 5] was 0.33 and the “Growth Rate” value [2, 6] was 0.49. The “Growth Rate” value [2, 7] was 0.88, the “Growth Rate” value [2, 8] was 0.3 and the “Growth Rate” value [2, 9] was 0.37. The “Growth Rate” value [2, 10] was 0.44, the “Growth Rate” value [2, 11] was 0.36 and the “Growth Rate” value [2, 12] was 0.33. For the same compound, the “Growth Rate” value [3, 4] was -0.52, the “Growth Rate” value [3, 5] was 0.29 and the “Growth Rate” value [3, 6] was 0.8. The “Growth Rate” value [3, 7] was 0.91, the “Growth Rate” value [3, 8] was 0.92 and the “Growth Rate” value [3, 9] was 0.78. For the same compound, the “Growth Rate” value [3, 10] was 0.66, the “Growth Rate” value [3, 11] was 0.68 and the “Growth Rate” value [3, 12] was 0.67. The “Growth Rate” value [3, 13] was 0.58.

With `N[C@](CC1c2ccccc2Oc2ccccc21)(C(=O)O)[C@H]1C[C@@H]1C(=O)O` the “Growth Rate” value [1, 4] was 0.29, the “Growth Rate” value [1, 7] was 0.73 and the “Growth Rate” value [1, 9] was 0.93. For the same compound, the “Growth Rate” value [1, 10] was 0.9, the “Growth Rate” value [1, 11] was 0.82 and the “Growth Rate” value [1, 12] was 0.68. The “Growth Rate” value [1, 13] was 0.88, the “Growth Rate” value [2, 4] was 0.78 and the “Growth Rate” value [2, 5] was -1. The “Growth Rate” value [2, 6] was 0.42, the “Growth Rate” value [2, 8] was 0.5 and the “Growth Rate” value [2, 10] was 0.57. For the same compound, the “Growth Rate” value [2, 12] was 0.69, the “Growth Rate” value [3, 5] was 0.8 and the “Growth Rate” value [3, 9] was 0.92. For the same compound, the “Growth Rate” value [3, 10] was 0.9.

For `Cc1ccccc1C(=O)Nc1ccc(C(=O)N2CCCC(N(C)C)c3ccccc32)cc1.Cl` (stereo unspecified), the “Growth Rate” value [1, 6] was -0.99, the “Growth Rate” value [1, 7] was -0.65 and the “Growth Rate” value [1, 8] was -0.85. For the same compound, the “Growth Rate” value [1, 9] was -0.38, the “Growth Rate” value [1, 10] was -0.63 and the “Growth Rate” value [1, 11] was -0.1. For the same compound, the “Growth Rate” value [1, 12] was -0.44, the “Growth Rate” value [1, 13] was 0.07 and the “Growth Rate” value [2, 6] was -0.55. For the same compound, the “Growth Rate” value [2, 7] was -0.44, the “Growth Rate” value [2, 8] was -0.32 and the “Growth Rate” value [2, 9] was -0.03. For the same compound, the “Growth Rate” value [2, 10] was -0.11, the “Growth Rate” value [2, 11] was 0.08 and the “Growth Rate” value [2, 12] was 0.1. The “Growth Rate” value [2, 13] was 0.22, the “Growth Rate” value [3, 4] was 0.36 and the “Growth Rate” value [3, 6] was 0.05. The “Growth Rate” value [3, 7] was -0.11, the “Growth Rate” value [3, 8] was -0.03 and the “Growth Rate” value [3, 9] was -0.22. For the same compound, the “Growth Rate” value [3, 10] was -0.06, the “Growth Rate” value [3, 11] was -0.09 and the “Growth Rate” value [3, 12] was -0.11. The “Growth Rate” value [3, 13] was -0.08.

`CCCCC(=O)N(Cc1ccc(-c2ccccc2-c2nnn[nH]2)cc1)[C@H](C(=O)O)C(C)C` was tested, and the “Growth Rate” value [1, 5] was 0.94, the “Growth Rate” value [1, 7] was 0.44 and the “Growth Rate” value [1, 9] was 0.96. For the same compound, the “Growth Rate” value [2, 5] was 0.85, the “Growth Rate” value [2, 6] was 0.44 and the “Growth Rate” value [2, 7] was 0.43. For the same compound, the “Growth Rate” value [2, 8] was 0.75, the “Growth Rate” value [2, 9] was 0.94 and the “Growth Rate” value [2, 10] was 0.6. For the same compound, the “Growth Rate” value [2, 12] was 0.8, the “Growth Rate” value [3, 5] was -0.99 and the “Growth Rate” value [3, 6] was 0.76. For the same compound, the “Growth Rate” value [3, 9] was 0.99 and the “Growth Rate” value [3, 11] was 0.92.

`CCOc1c2c(c(OCC)c3ncccc13)CN(c1ccc(CS(=O)(=O)NC(=O)Cc3ccccc3OC)cc1C)C2=O` was tested, and the “Growth Rate” value [1, 4] was 0.27, the “Growth Rate” value [1, 5] was 0.58 and the “Growth Rate” value [1, 6] was 0.32. The “Growth Rate” value [1, 7] was -0.34, the “Growth Rate” value [1, 8] was 0.49 and the “Growth Rate” value [1, 9] was -0.12. For the same compound, the “Growth Rate” value [1, 10] was 0.23, the “Growth Rate” value [1, 11] was -0.18 and the “Growth Rate” value [1, 12] was -0.06. The “Growth Rate” value [1, 13] was -0.4, the “Growth Rate” value [2, 5] was 0.82 and the “Growth Rate” value [2, 6] was 0.48. For the same compound, the “Growth Rate” value [2, 8] was 0.83, the “Growth Rate” value [2, 10] was 0.9 and the “Growth Rate” value [2, 11] was 1. The “Growth Rate” value [2, 12] was 0.87, the “Growth Rate” value [3, 4] was -0.69 and the “Growth Rate” value [3, 7] was 0.75. For the same compound, the “Growth Rate” value [3, 11] was 1.

For `CC1(C)[C@H]2C[C@H](C/C=C\CCCC(=O)O)[C@@H](NC(=O)c3csc4ccc(O)cc34)[C@@H]1C2`, the “Growth Rate” value [1, 6] was 0.09, the “Growth Rate” value [1, 8] was 0.51 and the “Growth Rate” value [1, 9] was 0.75. For the same compound, the “Growth Rate” value [1, 10] was 0.69, the “Growth Rate” value [2, 5] was 0.67 and the “Growth Rate” value [2, 6] was 0.73. For the same compound, the “Growth Rate” value [2, 10] was 0.94, the “Growth Rate” value [2, 12] was 0.85 and the “Growth Rate” value [3, 5] was -0.79. For the same compound, the “Growth Rate” value [3, 6] was 0.23, the “Growth Rate” value [3, 7] was 0.91 and the “Growth Rate” value [3, 8] was 0.14. The “Growth Rate” value [3, 10] was 0.37, the “Growth Rate” value [3, 11] was 0.81 and the “Growth Rate” value [3, 12] was 0.66. The “Growth Rate” value [3, 13] was 0.86.

For `O=C(O)CCn1c2c(c3ccccc31)C[C@H](NS(=O)(=O)c1ccc(F)cc1)CC2` [RAMATROBAN], the “Growth Rate” value [1, 4] was -0.24, the “Growth Rate” value [1, 5] was 0.9 and the “Growth Rate” value [1, 7] was 0.99. The “Growth Rate” value [2, 7] was 0.71, the “Growth Rate” value [2, 8] was 0.91 and the “Growth Rate” value [2, 9] was 0.72. For the same compound, the “Growth Rate” value [2, 11] was 0.76, the “Growth Rate” value [3, 5] was -1 and the “Growth Rate” value [3, 8] was 0.75. For the same compound, the “Growth Rate” value [3, 9] was 0.9, the “Growth Rate” value [3, 10] was 0.98 and the “Growth Rate” value [3, 11] was 0.9. The “Growth Rate” value [3, 12] was 0.97.

In the case of `O=C1NC(=O)C(c2ccccc2[N+](=O)[O-])=C1Nc1ccc(O)c(Cl)c1`, the “Growth Rate” value [1, 4] was -0.16, the “Growth Rate” value [1, 5] was 0.11 and the “Growth Rate” value [2, 4] was 0.17. The “Growth Rate” value [2, 5] was 0.13, the “Growth Rate” value [3, 4] was 0.02 and the “Growth Rate” value [3, 5] was -1. For the same compound, the “Growth Rate” value [3, 8] was 0.95 and the “Growth Rate” value [3, 12] was 0.84.

With `COc1ccc2[nH]cc(CCNC(C)=O)c2c1` [MELATONIN] the “Growth Rate” value [1, 4] was 0.91, the “Growth Rate” value [1, 5] was 0.06 and the “Growth Rate” value [2, 4] was 0.52. For the same compound, the “Growth Rate” value [2, 5] was 0.8, the “Growth Rate” value [2, 6] was 0.93 and the “Growth Rate” value [2, 12] was 0.94. For the same compound, the “Growth Rate” value [3, 5] was 0.55, the “Growth Rate” value [3, 11] was 0.85 and the “Growth Rate” value [3, 13] was 0.97.

With `C[C@H](NC(=O)CNC(=O)c1cccc(Cl)c1)c1ccccc1` the “Growth Rate” value [1, 4] was 0.45, the “Growth Rate” value [1, 5] was 0.36 and the “Growth Rate” value [2, 5] was 0.84. For the same compound, the “Growth Rate” value [2, 9] was 0.96, the “Growth Rate” value [3, 4] was -0.7 and the “Growth Rate” value [3, 7] was 0.8. For the same compound, the “Growth Rate” value [3, 9] was 0.94, the “Growth Rate” value [3, 11] was 0.91 and the “Growth Rate” value [3, 13] was 0.98.

With `Cc1noc(-c2ccc(-c3ccc(CC(=O)O)cc3)cc2)c1NC(=O)O[C@H](C)c1ccccc1Cl` the “Growth Rate” value [1, 4] was -0.69, the “Growth Rate” value [1, 5] was 0.54 and the “Growth Rate” value [2, 8] was 0.85. The “Growth Rate” value [2, 10] was 0.67, the “Growth Rate” value [2, 12] was 0.81 and the “Growth Rate” value [3, 7] was 0.82. The “Growth Rate” value [3, 9] was 0.92, the “Growth Rate” value [3, 11] was 0.93 and the “Growth Rate” value [3, 13] was 0.95.

For `COc1cc(OC)cc(C(=O)NNC(=O)Nc2cccc3ccccc23)c1`, the “Growth Rate” value [1, 6] was 0.64, the “Growth Rate” value [1, 8] was 0.93 and the “Growth Rate” value [2, 4] was 0.01. For the same compound, the “Growth Rate” value [2, 5] was 0.45, the “Growth Rate” value [2, 10] was 0.97 and the “Growth Rate” value [3, 4] was 0.7. For the same compound, the “Growth Rate” value [3, 5] was -1, the “Growth Rate” value [3, 6] was 0.36 and the “Growth Rate” value [3, 8] was 1. For the same compound, the “Growth Rate” value [3, 9] was 0.87, the “Growth Rate” value [3, 10] was 0.78 and the “Growth Rate” value [3, 11] was 0.77. For the same compound, the “Growth Rate” value [3, 12] was 0.87 and the “Growth Rate” value [3, 13] was 0.86.

In the case of `Cc1cc(-c2ccc3c(c2)CC[C@H]3N2CC3(CCN(C(=O)Cc4cn5cc(C)sc5n4)CC3)C2)ncn1` [PF-5190457], the “Growth Rate” value [1, 5] was 0.62, the “Growth Rate” value [1, 6] was -0.34 and the “Growth Rate” value [1, 8] was 0.22. For the same compound, the “Growth Rate” value [1, 9] was 0.88, the “Growth Rate” value [1, 10] was 0.37 and the “Growth Rate” value [1, 12] was 0.57. The “Growth Rate” value [2, 5] was 0.77, the “Growth Rate” value [2, 10] was 0.98 and the “Growth Rate” value [3, 5] was -0.98. For the same compound, the “Growth Rate” value [3, 9] was 0.99 and the “Growth Rate” value [3, 10] was 0.94.

— ChEMBL document CHEMBL5058564, “EUbOPEN Chemogenomics Library 2 (Incucyte)” (2022)
